Data taken from a melting point compilation (Tetko et al.).

Row | Compound | melting point [°C]
1 | O=C(O)C1CC2CCCC(C1)C2=O (stereo not drawn) | 129 to 131
2 | CC(C)CNC(=O)c1ccccc1N | 109 to 111
3 | Cn1cc(N2CCNCC2=O)cn1 | 123 to 125
4 | O=C(O)c1cccc(OC2CCCC2)c1 | 79 to 81
5 | CC(=O)N1CCC(C(=O)O)C1 (stereo not drawn) | 145 to 147
6 | NC(=S)c1ccco1 | 132 to 134
7 | CC(C)(C)OC(=O)Nc1cscn1 | 153 to 155
8 | CC(CC(=O)O)NCCO (stereo not drawn) | 180 to 182
9 | Cc1ccc(-c2nc(C)c(C(C)N)s2)cc1 (stereo not drawn) | 57 to 59
10 | CN(CC(=O)O)C1CCCC1O (stereo not drawn) | 150 to 152
11 | O=C(O)c1coc(C#Cc2ccccc2)c1 | 183 to 185
12 | Cc1cc(C)c(-c2cc(N)[nH]n2)cc1C | 145 to 147
13 | COC(=O)C1CCC(C(=O)O)CC1 (stereo not drawn) | 85 to 87
14 | NC(=NO)c1cccnc1Oc1ccccc1 | 152 to 154
15 | Nc1c2c(nn1-c1ccccc1)CCC2 | 180 to 182
16 | O=C(c1cc(Cl)nc2ccccc12)N1CCOCC1 | 175 to 177
17 | COc1ccccc1C1(C(=O)O)CCC1 | 149 to 151
18 | CC(C)Cn1cnc(S(N)(=O)=O)c1 | 144 to 146
19 | CCN(C(C)=O)c1nc(CCl)cs1 | 82 to 84
20 | COc1ccc(CNc2nccs2)cc1 | 147 to 149

Row | Compound | melting point [°C]
21 | NCc1ccc(N2CCCC(C(N)=O)C2)cc1 (stereo not drawn) | 169 to 171
22 | CC(C)NC(=O)N(C)c1ccc(O)cc1 | 158 to 160
23 | CC(C)=C(F)C(=O)O | 64 to 66
24 | Nn1c(S)nnc1COc1ccccc1 | 163 to 167
25 | CC1C(O)CC2CC1C2(C)C (stereo not drawn) | 51 to 53
26 | COc1ccc(OC(C)C(=O)O)cc1 (stereo not drawn) | 91 to 93
27 | COc1ccc(NC(=O)c2ccc(N)cc2)cc1 | 187 to 189
28 | Cc1ccccc1OCc1csc(N)n1 | 95 to 97
29 | CCCNC(=O)c1ccccc1N | 206 to 208
30 | COc1nc(C)cc(=O)[nH]1 | 199 to 201
31 | N#Cc1nccnc1Oc1ccc(N)cc1 | 170 to 172
32 | Cc1cc(S)nc(C(C)C)n1 | 160 to 164
33 | CCOC(=O)c1nc(-c2ccccc2)oc1N | 181 to 183
34 | CC(C)CNCC(O)c1ccc(F)cc1 (stereo not drawn) | 56 to 58
35 | O=C(O)c1ccc(NC(=O)C2CC2)cc1 | 274 to 276
36 | NC1(C(=O)NCC2CC2)CCCC1 | 64 to 66
37 | COC(=O)c1cc(Br)c(N)s1 | 88 to 90
38 | COC(=O)c1cc2c(OC)c(OC)c(OC)cc2[nH]1 | 136 to 138
39 | CC(C)(C)OC(=O)N1CCCC(C(C)(C)C(=O)O)C1 (stereo not drawn) | 96 to 98
40 | CCCCCOc1ccc2cc(C(=O)O)[nH]c2c1 | 162 to 164

Row | Compound | melting point [°C]
41 | Cc1nc(C(C)(C)C)nc(Cl)c1C | 36 to 38
42 | CC(C)(C)c1ccc(C=CC(=O)O)cc1 | 206 to 208
43 | CC(C)(C)OC(=O)N1CC(=CC(=O)O)C1 | 140 to 142
44 | N#Cc1cccc(OCc2ccoc2C(=O)O)c1 | 177 to 179
45 | NC(=O)CNCc1ccccc1 | 90 to 92
46 | Oc1cccc(CNC2CC2)c1 | 125 to 127
47 | NC(=O)CC1CCNCC1 | 146 to 148
48 | Cc1nnc(-c2cccc(N)c2)n1C | 189 to 191
49 | CC(N)Cn1cnc2c(cnn2C)c1=O (stereo not drawn) | 148 to 150
50 | Nc1cc(C2CC2)no1 | 52 to 54
51 | Cc1cc(Nc2nc3ccccc3nc2Cl)n(-c2ccccc2)n1 | 178 to 180
52 | CC(Oc1cccc(Br)c1)C(=O)NN (stereo not drawn) | 113 to 115
53 | COc1ccc(C(O)C2CC2)c(C)c1 (stereo not drawn) | 39 to 41
54 | CC(C)c1cccc(OCC(=O)O)c1 | 65 to 67
55 | CC(=O)Nc1ccc(CO)cc1 | 117 to 119
56 | Cc1nnc(CN)s1 | 76 to 78
57 | CC(C)(C)c1ccc(-c2ccc(C(=O)O)o2)cc1 | 213 to 215
58 | CCOc1cccc(C=O)n1 | 55 to 57

Second part, the compound after the results:

Row | melting point [°C] | Compound
59 | 52 to 54 | Cc1nc(Cl)nc(Cl)c1[N+](=O)[O-]
60 | 62 to 64 | COc1ccc(F)cc1[N+](=O)[O-]
61 | 119 to 121 | COC(=O)C1CCCN1C(=O)c1ccc([N+](=O)[O-])s1 (stereo not drawn)
62 | 80 to 82 | O=C(CCl)NCC#Cc1cccc(C(F)(F)F)c1
63 | 84 to 86 | CNCCNS(=O)(=O)c1ccc(C)cc1
64 | 47 to 49 | O=S(=O)(c1ccccc1O)C(F)(F)F
65 | 290 to 292 | O=[N+]([O-])c1[nH]cnc1-c1ccc(F)cc1
66 | 69 to 71 | COC(=O)c1cc2ccccc2n1C
67 | 57 to 59 | O=[N+]([O-])c1ccc(F)cc1S(=O)(=O)Cl
68 | 154 to 156 | O=C(O)c1ccc(SC(F)F)cc1
69 | 232 to 234 | COc1ccc(NS(=O)(=O)c2cc(N)ccc2N2CCOCC2)cc1
70 | 237 to 239 | Fc1ccc(-n2c(S)nc3ccccc32)cc1
71 | 149 to 151 | O=S1(=O)Cc2ccc(Cl)cc2N1
72 | 81 to 83 | C=CC(=O)Nc1ccc(N(C)C(C)C)c(F)c1
73 | 89 to 91 | CN(C)C(=O)COc1ccccc1C=O
74 | 204 to 206 | COCCNc1ccc([N+](=O)[O-])cc1C(=O)O
75 | 147 to 149 | CS(=O)(=O)c1cccc(Cl)c1C(=O)O
76 | 303 to 305 | O=C(O)c1ccc(CNC2=NS(=O)(=O)c3ccccc32)cc1
77 | 131 to 135 | O=C(O)CCc1c(-c2ccc(F)cc2)[nH]c2ccc(F)cc12
78 | 136 to 138 | O=C(O)C1CCCN(S(=O)(=O)c2cccs2)C1 (stereo not drawn)
79 | 156 to 158 | CN(C)Cc1ccc(C(N)=O)cc1N
80 | 201 to 205 | CC1CCCCN1S(=O)(=O)c1ccc(C(=O)O)cc1 (stereo not drawn)
81 | 178 to 183 | O=S(=O)(c1cccc2c1N=S=N2)N1CCNCC1

Row | melting point [°C] | Compound
82 | 134 to 136 | CCOc1ccc(S(=O)(=O)N2CCCCC2)cc1N
83 | 129 to 131 | CCOc1cc(C(=O)O)ccc1OCC(=O)OC
84 | 68 to 70 | NCc1nc2cc(Cl)ccc2s1
85 | 126 to 128 | N#Cc1cccc2cnccc12
86 | 219 to 221 | Nc1ccc(Cl)nc1C(=O)O
87 | 134 to 136 | COc1cc(C(C)=O)ccc1SCC(=O)O
88 | 247 to 249 | O=C1COc2cccc(O)c2N1
89 | 176 to 178 | Nc1cccc(-n2ccnc2S)c1
90 | 143 to 145 | N#CC1=C(N)Oc2ccccc2C1
91 | 127 to 131 | CC(=O)c1ccc(N2CCCC2=O)cc1
92 | 275 to 277 | Cc1ccc(Cl)c2c1NC(=O)C2=O
93 | 122 to 124 | CN1C(=O)CCC(CO)C1c1cccc(Cl)c1 (stereo not drawn)
94 | 124 to 126 | N#Cc1ccc(Oc2cccc([N+](=O)[O-])c2)cc1
95 | 219 to 221 | Cc1nn(-c2ccc(F)cc2)c(C)c1C(=O)O
96 | 128 to 132 | CC(C)C(Nc1ccc(C(F)(F)F)cc1Cl)C(=O)O (stereo not drawn)
97 | 92 to 94 | O=c1ccccn1Cc1ccc(Cl)c([N+](=O)[O-])c1
98 | 157 to 159 | O=C1C(=O)N(CO)c2ccccc21
99 | 185 to 187 | NS(=O)(=O)c1ccc(Cl)c(S(=O)(=O)Cl)c1
100 | 259 to 261 | O=c1[nH]c(CCl)nc2c1cnn2-c1ccccc1
101 | 97 to 99 | Nc1ncc(Cc2ccc(F)c(F)c2)s1
102 | 96 to 98 | Cc1ccc(N)c(C)c1S(=O)(=O)NC1CC1
103 | 201 to 203 | CC1=CC(=O)N(c2ccc(C(=O)O)cc2)C1=O
